# Test system: 885512-296-R-J2-PDC complex spheroid viability
# Assay: Anticancer human tumor 885512-296-R-J2-PDC patient-derived breast carcinoma cell line growth inhibition [GQUAD]
# Conditions: for IC50: curve of first compound; for viability, T/C: stronger effect = lower value
# From the text: DNA G-quadruplex Stabilizer Agents in Combinations in Complex Spheroids
# A high-throughput screen of multi-cell type tumor spheroids was designed to identify active combinations of DNA G-quadruplex stabilizer agents and targeted small molecules. Complex spheroids include a stromal component modeled by human endothelial cells (HUVEC) and fibroblasts modeled by human mesenchymal stem cells (MSCs). The concentration ranges selected for each drug and investigational agent were based upon clinically achievable concentrations if the clinical Cmax of the agent was known.
# Compounds. The drugs and investigational agents: pidnarulex (CX-5461; NSC782164), APTO-253 (NSC789042), BRACO-19 (NSC847499), peposertib (NSC802822), ceralasertib (NSC780249), elimusertib (NSC800525), camonsertib (NSC841442), AZD-1390 (NSC803789), olaparib (NSC753686), talazoparib (NSC767125), ART-558 (NSC835418), sotorasib (NSC818433), MRTX-1133 (NSC836407), SN-38 (NSC673596), topotecan (NSC609699), etoposide (NSC141540), doxorubicin (NSC123127), gemcitabine (NSC613327), 5-fluorouracil (NSC19893), paclitaxel (NSC125973), vemurafenib (NSC761431), panobinostat (NSC761190), R-306465 (JNJ-16241199; NSC773264), adavosertib (NSC754352), TP-3654 (NSC805149), carboplatin (NSC241240), KSQ-4279 (NSC840948), and staurosporine (NSC755774) were obtained from the National Cancer Institute (NCI) Developmental Therapeutics Program Chemical Repository (34). The FDA-approved anticancer drug set is available from the NCI Developmental Therapeutics Program. […] The stock solutions were prepared in dimethyl sulfoxide (DMSO, Sigma-Aldrich, St. Louis, MO, cat. D2650) at 800-fold the tested concentration and stored at -70 degrees C prior to their use. All drugs and investigational agents were tested over a range starting from a high concentration at or near the clinical Cmax and decreasing in half-log increments. If the clinical Cmax for an agent had not been determined, the highest concentration tested was 10 microM.
# 2.3 Cell Culture. All cells were maintained in an incubator at 37 degrees C and 5% CO2 with 95% humidity. The PDC lines were cultured according to standard operating procedures established by the NCI PDMR. All PDCs were thawed and cultured in Matrigel-coated flasks prepared with a working solution of 1X Ham's F-12 nutrient mix, without supplementation (Invitrogen, cat. 11765054), 100 U/mL penicillin-streptomycin (Invitrogen, cat. 15140122), and 2.5% Matrigel (Corning Inc., cat. 354248) for the first three passages. The 857933-349-R-J2-PDC line was cultured in 6C/Colon 1B media, which includes advanced DMEM/F-12 (Thermo Fisher Scientific, cat. 12634028), 10 mM HEPES (Thermo Fisher Scientific, cat. 15630080), 1X GlutaMAX supplement (Thermo Fisher Scientific, cat. 35050061), 0.1 mg/mL primocin (InvivoGen, cat. ant-pm-2), 10% defined fetal bovine serum, heat inactivated (HyClone Laboratories Inc., cat. SH30070.03HI), 50% L-WRN conditioned media (ATCC, cat. CRL-3276), 1.25 mM N-Acetyl-L-cysteine (Sigma-Aldrich, cat. A9165), 10 mM nicotinamide (Sigma-Aldrich, cat. N0636), 1X B-27 supplement (Thermo Fisher Scientific, cat. 17504044), 1X N-2 supplement (Thermo Fisher Scientific, cat. 17502048), 10 microM Y-27632 dihydrochloride (Tocris Bioscience, cat. 1254), and 50 ng/mL human EGF recombinant protein (Thermo Fisher Scientific, cat. PHG0311). The 485176-168-R4-J1-PDC line was cultured in Panc media, which includes all 6C/Colon 1B media components plus 100 ng/mL human FGF-10 (Thermo Fisher Scientific, cat. 100-26), 500 nM SB-431542 (Selleckchem, cat. S1067), and gastrin (Tocris, cat. 3006).
# […]
# [1] = second compound 0.0316 µM, first compound 0.0316 µM
# [2] = second compound 0.0316 µM, first compound 0.316 µM
# [3] = second compound 0.1 µM, first compound 0.0316 µM
# [4] = second compound 0.1 µM, first compound 0.316 µM
# [5] = second compound 0.316 µM, first compound 0.0316 µM
# [6] = second compound 0.316 µM, first compound 0.316 µM
# [7] = second compound 1 µM, first compound 0.0316 µM
# [8] = second compound 1 µM, first compound 0.316 µM
# [9] = second compound 3.16 µM, first compound 0.0316 µM
# [10] = second compound 3.16 µM, first compound 0.316 µM
# [11] = second compound 10 µM, first compound 0.0316 µM
# [12] = second compound 10 µM, first compound 0.316 µM
# 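Also: spheroids exposed to the compounds for one week.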
# 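For viability, T/C in this document: percent of tumor spheroid viability relative to DMSO vehicle control wells.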
compound,measurement,setting,value
CC1COCCN1c1cc(C2(S(C)(=N)=O)CC2)nc(-c2ccnc3[nH]ccc23)n1 (centres undefined) + Cc1[nH]c2ccc(F)cc2c1-c1nc2c3cccnc3c3ncccc3c2[nH]1,IC50,second compound 0.0316 µM,838 nM
same,IC50,second compound 0.1 µM,868 nM
same,IC50,second compound 0.316 µM,555 nM
same,IC50,second compound 1 µM,147 nM
same,IC50,second compound 3.16 µM,< 31.6 nM
same,IC50,second compound 10 µM,< 31.6 nM
same,"viability, T/C",[1],103%
same,"viability, T/C","second compound 0.0316 µM, first compound 0.1 µM",105%
same,"viability, T/C",[2],85.6%
same,"viability, T/C","second compound 0.0316 µM, first compound 1 µM",44.9%
same,"viability, T/C","second compound 0.0316 µM, first compound 3.16 µM",7.65%
same,"viability, T/C","second compound 0.0316 µM, first compound 10 µM",5.02%
same,"viability, T/C",[3],125%
same,"viability, T/C","second compound 0.1 µM, first compound 0.1 µM",108%
same,"viability, T/C",[4],92.1%
same,"viability, T/C","second compound 0.1 µM, first compound 1 µM",46.1%
same,"viability, T/C","second compound 0.1 µM, first compound 3.16 µM",6.65%
same,"viability, T/C","second compound 0.1 µM, first compound 10 µM",3.91%
same,"viability, T/C",[5],102%
same,"viability, T/C","second compound 0.316 µM, first compound 0.1 µM",94.2%
same,"viability, T/C",[6],72%
same,"viability, T/C","second compound 0.316 µM, first compound 1 µM",28%
same,"viability, T/C","second compound 0.316 µM, first compound 3.16 µM",4.02%
same,"viability, T/C","second compound 0.316 µM, first compound 10 µM",4.62%
same,"viability, T/C",[7],80.4%
same,"viability, T/C","second compound 1 µM, first compound 0.1 µM",55.6%
same,"viability, T/C",[8],37%
same,"viability, T/C","second compound 1 µM, first compound 1 µM",5.55%
same,"viability, T/C","second compound 1 µM, first compound 3.16 µM",3.67%
same,"viability, T/C","second compound 1 µM, first compound 10 µM",3.74%
same,"viability, T/C",[9],10.4%
same,"viability, T/C","second compound 3.16 µM, first compound 0.1 µM",5.19%
same,"viability, T/C",[10],3.19%
same,"viability, T/C","second compound 3.16 µM, first compound 1 µM",1.97%
same,"viability, T/C","second compound 3.16 µM, first compound 3.16 µM",1.51%
same,"viability, T/C","second compound 3.16 µM, first compound 10 µM",1.38%
same,"viability, T/C",[11],1.16%
same,"viability, T/C","second compound 10 µM, first compound 0.1 µM",1.65%
same,"viability, T/C",[12],1.5%
same,"viability, T/C","second compound 10 µM, first compound 1 µM",1.57%
same,"viability, T/C","second compound 10 µM, first compound 3.16 µM",1.94%
same,"viability, T/C","second compound 10 µM, first compound 10 µM",1.43%
CCc1c2c(nc3ccc(O)cc13)-c1cc3c(c(=O)n1C2)COC(=O)[C@]3(O)CC + Cc1[nH]c2ccc(F)cc2c1-c1nc2c3cccnc3c3ncccc3c2[nH]1,IC50,second compound 0.0316 µM,< 0.999 nM
same,IC50,second compound 0.1 µM,< 0.999 nM
same,IC50,second compound 0.316 µM,< 0.999 nM
same,IC50,second compound 1 µM,< 0.999 nM
same,IC50,second compound 3.16 µM,< 0.999 nM
same,IC50,second compound 10 µM,< 0.999 nM
same,"viability, T/C","second compound 0.0316 µM, first compound 0.000999 µM",26.3%
same,"viability, T/C","second compound 0.0316 µM, first compound 0.00316 µM",9.48%
same,"viability, T/C","second compound 0.0316 µM, first compound 0.00999 µM",6.06%
same,"viability, T/C",[1],3.24%
same,"viability, T/C","second compound 0.0316 µM, first compound 0.0999 µM",2.09%
same,"viability, T/C",[2],1.42%
same,"viability, T/C","second compound 0.1 µM, first compound 0.000999 µM",25.8%
same,"viability, T/C","second compound 0.1 µM, first compound 0.00316 µM",9.37%
same,"viability, T/C","second compound 0.1 µM, first compound 0.00999 µM",5.76%
same,"viability, T/C",[3],2.48%
same,"viability, T/C","second compound 0.1 µM, first compound 0.0999 µM",1.88%
same,"viability, T/C",[4],1.48%
same,"viability, T/C","second compound 0.316 µM, first compound 0.000999 µM",28.2%
same,"viability, T/C","second compound 0.316 µM, first compound 0.00316 µM",9.08%
same,"viability, T/C","second compound 0.316 µM, first compound 0.00999 µM",4.66%
same,"viability, T/C",[5],2.27%
same,"viability, T/C","second compound 0.316 µM, first compound 0.0999 µM",1.56%
same,"viability, T/C",[6],1.34%
same,"viability, T/C","second compound 1 µM, first compound 0.000999 µM",26%
same,"viability, T/C","second compound 1 µM, first compound 0.00316 µM",8.76%
same,"viability, T/C","second compound 1 µM, first compound 0.00999 µM",2.75%
same,"viability, T/C",[7],1.69%
same,"viability, T/C","second compound 1 µM, first compound 0.0999 µM",1.68%
same,"viability, T/C",[8],1.43%
same,"viability, T/C","second compound 3.16 µM, first compound 0.000999 µM",3.36%
same,"viability, T/C","second compound 3.16 µM, first compound 0.00316 µM",2.2%
same,"viability, T/C","second compound 3.16 µM, first compound 0.00999 µM",2.07%
same,"viability, T/C",[9],1.56%
same,"viability, T/C","second compound 3.16 µM, first compound 0.0999 µM",1.71%
same,"viability, T/C",[10],2.07%
same,"viability, T/C","second compound 10 µM, first compound 0.000999 µM",1.69%
same,"viability, T/C","second compound 10 µM, first compound 0.00316 µM",1.34%
same,"viability, T/C","second compound 10 µM, first compound 0.00999 µM",1.31%
same,"viability, T/C",[11],1.08%
same,"viability, T/C","second compound 10 µM, first compound 0.0999 µM",0.89%
same,"viability, T/C",[12],1.57%

# From PubChem BioAssay AID2060490 (Molecular Pharmacology Branch, DTP, NCI, 2025)
